Assay [1] concerns the target T1, E. coli CsgA (Escherichia coli, UniProt P28307).
T1 construct: made in house; host or cells: E. coli NEB 3016 slyD::kan, pET11d
Put plainly: In vitro ThioflavinT assay of CsgA aggregation (CsgA ThT Assay). In kind it is biochemical. Particulars: 1005 minutes; for remaining activity at 25 µM: compound 25 μM; for remaining activity at 100 µM: compound 100 μM. The method in brief:
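Purified C-terminal His-tagged CsgA, monomerised by desalting and 30-kDa filtration, at 2-20 μM with 20-40 μM ThT in 50 mM potassium phosphate pH 7.3, 1% DMSO, compounds 3.125-200 uM; room temperature, fluorescence (ex 438/em 495 nm) read every 15 min. Background-subtracted signal expressed as percent inhibition versus vehicle at 6-6.5 or 8-9 h, or as percent control AUC.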

Assay [2] has as its system CsgA gene expression (csgBAC promoter-GFP reporter) in E. coli UTI89. Put plainly: In vitro live cell fluorescent reporter assay of CsgA transcription (Reporter Assay). In kind it is cell-based. To be noted: Escherichia coli. The method in brief:
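Compounds at 0.14–100 μM (1% DMSO final) incubated 20 h at 27 °C in YESCA broth with UTI89 carrying a single-copy GFP reporter under the csgBAC intergenic promoter region, inoculum OD600 0.003. Fluorescence normalized to vehicle wells gave IC50 and 50%-of-vehicle concentration; OD600 reduction >10% flagged growth impact.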
(In general: A reporter such as luciferase makes a cellular process visible.)

[3] abbreviates: read-out: CsgA ThT Assay (10 μM CsgA) % Control AUC at 1005 minutes, 25 μM (activity range), CsgA 10 μM, black plates, class symbol.
The mark [4] stands for this setting: read-out: CsgA ThT Assay (10 μM CsgA) % Control AUC at 1005 minutes, 25 μM, mean AUC as % of DMSO control, CsgA 10 μM, black plates.
The mark [5] stands for this setting: read-out: CsgA ThT Assay (10 μM CsgA) % Control AUC at 1005 minutes, 100 μM (activity range), CsgA 10 μM, black plates, class symbol.
Setting [6] is: read-out: CsgA ThT Assay (10 μM CsgA) % Control AUC at 1005 minutes, 100 μM, mean AUC as % of DMSO control, CsgA 10 μM, black plates.
[7] abbreviates: read-out: Reporter Assay Abs IC50 (activity range), median Abs IC50 in the CsgA reporter assay, class symbol.
Setting [8] is: read-out: Reporter Assay Abs IC50 (μM), median Abs IC50 in the CsgA reporter assay, N/A = maximum expression reduction is <50% of control.

Where two headings read alike, the source gives them in different places.

As usually defined, the IC50 is the concentration needed to halve the response being measured.

T1 sequence (P28307 23-151): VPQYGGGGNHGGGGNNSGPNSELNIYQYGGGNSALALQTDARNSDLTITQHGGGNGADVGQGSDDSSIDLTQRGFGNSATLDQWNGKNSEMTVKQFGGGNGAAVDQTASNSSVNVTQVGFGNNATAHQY

Turning to `O=C(O)C1CN(CCCCCO)S(=O)(=O)c2c(-c3cccc(C(F)(F)F)c3)c(Cc3cccc4ccccc34)cc(=O)n21` (stereo not drawn) [Compound 086, 2-(5-hydroxypentyl)-8-(naphthalen-1-ylmethyl)-6-oxo-9-(3-(trifluoromethyl)phenyl)-3,4-dihydro-2H,6H-pyrido[1,2-e][1,2,5]thiadiazine-4-carboxylic acid 1,1-dioxide], the results for the remaining activity at 25 µM in assay [1] (setting [3]) and in assay [1] (setting [4]) were 31 to 60% and 33%, respectively. Further, the remaining activity at 100 µM in assay [1] (setting [5]) was 11 to 31%; in assay [1] (setting [6]), 20%. In addition, the IC50 in assay [2] (setting [7]) was 4.6 to 10 µM; in assay [2] (setting [8]), 9.6 µM.

With `C/C=C\c1c(Cc2cccc3ccccc23)c(-c2cccc(C(F)(F)F)c2)c2n(c1=O)C(C(=O)O)CN(C)S2(=O)=O` (stereo not drawn) [Compound 087, (Z)-2-methyl-8-(naphthalen-1-ylmethyl)-6-oxo-7-(prop-1-en-1-yl)-9-(3-(trifluoromethyl)phenyl)-3,4-dihydro-2H,6H-pyrido[1,2-e][1,2,5]thiadiazine-4-carboxylic acid 1,1-dioxide], the remaining activity at 25 µM was 11 to 31% in assay [1] (setting [3]) and 30% in assay [1] (setting [4]). Moreover, the remaining activity at 100 µM in assay [1] (setting [5]) was 11 to 31%; in assay [1] (setting [6]) it was 15%. Moreover, the results for the IC50 in assay [2] (setting [7]) and in assay [2] (setting [8]) were 4.6 to 10 µM and 6 µM, respectively.

Regarding `C/C=C/c1c(Cc2cccc3ccccc23)c(-c2cccc(C(F)(F)F)c2)c2n(c1=O)C(C(=O)O)CN(C)S2(=O)=O` (stereo not drawn) [Compound 088, (E)-2-methyl-8-(naphthalen-1-ylmethyl)-6-oxo-7-(prop-1-en-1-yl)-9-(3-(trifluoromethyl)phenyl)-3,4-dihydro-2H,6H-pyrido[1,2-e][1,2,5]thiadiazine-4-carboxylic acid 1,1-dioxide], the remaining activity at 25 µM in assay [1] (setting [3]) was 31 to 60%; in assay [1] (setting [4]), 36%. The remaining activity at 100 µM is 11 to 31% in assay [1] (setting [5]) and 26% in assay [1] (setting [6]). Further, the IC50 is 4.6 to 10 µM in assay [2] (setting [7]) and 5.2 µM in assay [2] (setting [8]).

Consider `CCCN1CC(C(=O)O)n2c(c(-c3cccc(C(F)(F)F)c3)c(Cc3cccc4ccccc34)c(N)c2=O)S1(=O)=O` (stereo not drawn) [Compound 089, 7-amino-8-(naphthalen-1-ylmethyl)-6-oxo-2-propyl-9-(3-(trifluoromethyl)phenyl)-3,4-dihydro-2H,6H-pyrido[1,2-e][1,2,5]thiadiazine-4-carboxylic acid 1,1-dioxide], for which the figures for the remaining activity at 25 µM in assay [1] (setting [3]) and in assay [1] (setting [4]) were 31 to 60% and 31%, respectively. Also, the values for the remaining activity at 100 µM in assay [1] (setting [5]) and in assay [1] (setting [6]) were 11 to 31% and 23%, respectively. Also, the IC50 in assay [2] (setting [7]) was 4.6 to 10 µM; in assay [2] (setting [8]), 8 µM.

For `CCCc1c(Cc2cccc3ccccc23)c(-c2cccc(C(F)(F)F)c2)c2n(c1=O)C(C(=O)O)CN(C)S2(=O)=O` (stereo not drawn) [Compound 090, 2-methyl-8-(naphthalen-1-ylmethyl)-6-oxo-7-propyl-9-(3-(trifluoromethyl)phenyl)-3,4-dihydro-2H,6H-pyrido[1,2-e][1,2,5]thiadiazine-4-carboxylic acid 1,1-dioxide], the remaining activity at 25 µM was 31 to 60% in assay [1] (setting [3]) and 54% in assay [1] (setting [4]). Also, the remaining activity at 100 µM in assay [1] (setting [5]) is 11 to 31%; in assay [1] (setting [6]), 30%. Moreover, the IC50 in assay [2] (setting [7]) was 4.6 to 10 µM; in assay [2] (setting [8]), 5.9 µM.

Turning to `CN1CC(C(=O)O)n2c(c(-c3cccc(C(F)(F)F)c3)c(Cc3cccc4ccccc34)c(NC3CCNCC3)c2=O)S1(=O)=O` (stereo not drawn) [Compound 091, 2-methyl-8-(naphthalen-1-ylmethyl)-6-oxo-7-(piperidin-4-ylamino)-9-(3-(trifluoromethyl)phenyl)-3,4-dihydro-2H,6H-pyrido[1,2-e][1,2,5]thiadiazine-4-carboxylic acid 1,1-dioxide], the remaining activity at 25 µM in assay [1] (setting [3]) is over 60%; in assay [1] (setting [4]), 90%. The remaining activity at 100 µM in assay [1] (setting [5]) is over 60%; in assay [1] (setting [6]), 65%. Moreover, the values for the concentration for half-maximal inhibition (IC50) in assay [2] (setting [7]) and in assay [2] (setting [8]) were 4.6 to 10 µM and 5.6 µM, respectively.

Regarding `CCN1CC(C(=O)O)n2c(c(-c3cccc(C(F)(F)F)c3)c(Cc3cccc4ccccc34)c(N)c2=O)S1(=O)=O` (stereo not drawn) [Compound 092, 7-amino-2-ethyl-8-(naphthalen-1-ylmethyl)-6-oxo-9-(3-(trifluoromethyl)phenyl)-3,4-dihydro-2H,6H-pyrido[1,2-e][1,2,5]thiadiazine-4-carboxylic acid 1,1-dioxide], the remaining activity at 25 µM in assay [1] (setting [3]) is over 60%; in assay [1] (setting [4]), 64%. Also, the remaining activity at 100 µM is 31 to 60% in assay [1] (setting [5]) and 52% in assay [1] (setting [6]). For the same molecule, the IC50 is over 10 µM in assay [2] (setting [7]) and 18.8 µM in assay [2] (setting [8]).

As for `CCCCN1CC(C(=O)O)n2c(c(-c3cccc(C(F)(F)F)c3)c(Cc3cccc4ccccc34)c(N)c2=O)S1(=O)=O` (stereo not drawn) [Compound 093, 7-amino-2-butyl-8-(naphthalen-1-ylmethyl)-6-oxo-9-(3-(trifluoromethyl)phenyl)-3,4-dihydro-2H,6H-pyrido[1,2-e][1,2,5]thiadiazine-4-carboxylic acid 1,1-dioxide], the values for the remaining activity at 25 µM in assay [1] (setting [3]) and in assay [1] (setting [4]) were 31 to 60% and 49%, respectively. Also, the remaining activity at 100 µM is 31 to 60% in assay [1] (setting [5]) and 37% in assay [1] (setting [6]). In addition, the figures for the IC50 in assay [2] (setting [7]) and in assay [2] (setting [8]) were 1.3 to 4.5 µM and 3.6 µM, respectively.

As for `CCCCCN1CC(C(=O)O)n2c(c(-c3cccc(C(F)(F)F)c3)c(Cc3cccc4ccccc34)c(N)c2=O)S1(=O)=O` (stereo not drawn) [Compound 094, 7-amino-8-(naphthalen-1-ylmethyl)-6-oxo-2-pentyl-9-(3-(trifluoromethyl)phenyl)-3,4-dihydro-2H,6H-pyrido[1,2-e][1,2,5]thiadiazine-4-carboxylic acid 1,1-dioxide], the remaining activity at 25 µM was 31 to 60% in assay [1] (setting [3]) and 51% in assay [1] (setting [4]). Moreover, the remaining activity at 100 µM in assay [1] (setting [5]) is 11 to 31%; in assay [1] (setting [6]) it was 30%. The results for the IC50 in assay [2] (setting [7]) and in assay [2] (setting [8]) were 1.3 to 4.5 µM and 1.9 µM, respectively.

Consider `Nc1c(Cc2cccc3ccccc23)c(-c2cccc(C(F)(F)F)c2)c2n(c1=O)C(C(=O)O)CN(C[C@H](O)CO)S2(=O)=O` (stereo partly drawn) [Compound 095, 7-amino-2-((S)-2,3-dihydroxypropyl)-8-(naphthalen-1-ylmethyl)-6-oxo-9-(3-(trifluoromethyl)phenyl)-3,4-dihydro-2H,6H-pyrido[1,2-e][1,2,5]thiadiazine-4-carboxylic acid 1,1-dioxide], for which the remaining activity at 25 µM in assay [1] (setting [3]) is over 60%; in assay [1] (setting [4]) it was 91%. Moreover, the figures for the remaining activity at 100 µM in assay [1] (setting [5]) and in assay [1] (setting [6]) were over 60% and 70%, respectively. Also, the half-inhibitory concentration (IC50) in assay [2] (setting [7]) is over 10 µM; in assay [2] (setting [8]), 25.9 µM.

With `Nc1c(Cc2cccc3ccccc23)c(-c2cccc(C(F)(F)F)c2)c2n(c1=O)C(C(=O)O)CN(C[C@@H](O)CO)S2(=O)=O` (stereo partly drawn) [Compound 096, 7-amino-2-((R)-2,3-dihydroxypropyl)-8-(naphthalen-1-ylmethyl)-6-oxo-9-(3-(trifluoromethyl)phenyl)-3,4-dihydro-2H,6H-pyrido[1,2-e][1,2,5]thiadiazine-4-carboxylic acid 1,1-dioxide], the remaining activity at 25 µM is over 60% in assay [1] (setting [3]) and 79% in assay [1] (setting [4]). For the same molecule, the remaining activity at 100 µM in assay [1] (setting [5]) was over 60%; in assay [1] (setting [6]), 71%. In addition, the results for the IC50 in assay [2] (setting [7]) and in assay [2] (setting [8]) were over 10 µM and 22.9 µM, respectively.

In the case of `Nc1c(Cc2cccc3ccccc23)c(-c2cccc(C(F)(F)F)c2)c2n(c1=O)C(C(=O)O)CN(CCCO)S2(=O)=O` (stereo not drawn) [Compound 097, 7-amino-2-(3-hydroxypropyl)-8-(naphthalen-1-ylmethyl)-6-oxo-9-(3-(trifluoromethyl)phenyl)-3,4-dihydro-2H,6H-pyrido[1,2-e][1,2,5]thiadiazine-4-carboxylic acid 1,1-dioxide], the remaining activity at 25 µM in assay [1] (setting [3]) is over 60%; in assay [1] (setting [4]), 63%. Moreover, the figures for the remaining activity at 100 µM in assay [1] (setting [5]) and in assay [1] (setting [6]) were 31 to 60% and 41%, respectively. The IC50 in assay [2] (setting [7]) is over 10 µM; in assay [2] (setting [8]), 18.4 µM.

With `Nc1c(Cc2cccc3ccccc23)c(-c2cccc(C(F)(F)F)c2)c2n(c1=O)C(C(=O)O)CN(CCO)S2(=O)=O` (stereo not drawn) [Compound 098, 7-amino-2-(2-hydroxyethyl)-8-(naphthalen-1-ylmethyl)-6-oxo-9-(3-(trifluoromethyl)phenyl)-3,4-dihydro-2H,6H-pyrido[1,2-e][1,2,5]thiadiazine-4-carboxylic acid 1,1-dioxide], the remaining activity at 25 µM in assay [1] (setting [3]) is 31 to 60%; in assay [1] (setting [4]), 60%. Also, the values for the remaining activity at 100 µM in assay [1] (setting [5]) and in assay [1] (setting [6]) were 31 to 60% and 33%, respectively. For the same molecule, the IC50 was over 10 µM in assay [2] (setting [7]) and 20.9 µM in assay [2] (setting [8]).
